Measured values reported in PMC7824033, “Flavones, Flavonols, and Glycosylated Derivatives—Impact on Candida albicans Growth and Virulence, Expression of CDR1 and ERG11, Cytotoxicity” (Pharmaceuticals, 2020).
“Also recorded” adds a separate entry of the source. Read-outs that look alike come from different tables or passages of the source.

Columns and labels:
[1] = tested on: C. albicans 475/15 biofilm formation; assay: Inhibition of biofilm formation (crystal violet); type: cell-based, Candida albicans
Protocol: Potential of selected compounds to interfere with C. albicans 475/15 biofilm formation was investigated as previously described. Briefly, C. albicans 475/15 was incubated with serial dilution of the compounds (MIC and subMICs) in YPD medium, in 96-well microtiter plates with adhesive bottom (Sarstedt, Nümbrecht, Germany), at 37 °C for 24 h. After incubation, wells were washed twice with sterile PBS and methanol was added into each well. After fixation, methanol was discarded, and the plate was air dried. Formed biofilms were stained with 0.1% crystal violet (Bio-Merieux, Craponne, France) for 30 min. The plate was gently washed under the tap of water and air dried. The stain bound to the remaining biofilms was dissolved with ethanol (96%, Zorka, Šabac, Serbia). Absorbance was read on a Multiskan™ FC Microplate Photometer, Thermo Scientific™. The percentage of inhibition of biofilm formation was calculated by the formula:[(A620control − A620sample)/A620control] × 100

ERG11 = assay: Expression of ERG11 (qPCR); type: cell-based, Candida albicans; conditions: treatment with MIC
Protocol: (§1) Total RNA was isolated as described by Sanglard et al. with some modifications. C. albicans 475/15 was grown with agitation at 30 °C in YEPD until OD540 = 0.4. C. albicans cells were incubated with MIC of compounds in YEPD at 30 °C with agitation for 30 min. Cells were centrifuged (4600 rpm, 4 °C for 5 min (Rotanata 460 R, Hettich, Tuttlingen, Germany)) and the pellet was resuspended in 300 µL of RNA buffer (0.1 M Tris-HCl pH 7.5, 0.1M LiCl, 10mM EDTA, 0.5% SDS). The pellet was homogenized with 200 µL of DEPC treated glass beads and 300 µL of Phenol:Chloroform:Isoamyl Alcohol (Sigma-Aldrich, Darmstadt, Germany) in Precellys Evolution tissue homogenizer (Bertion instruments, Montigny-le-Bretonneux, France) at 4500 rpm for 5 s. After centrifugation (14,000 rpm, 4 °C, 1 min (Universal 32 R, Hettich, Tuttlingen, Germany)) 200 µL of supernatant was vortexed with 250 µL of Phenol:Chloroform:Isoamyl Alcohol for 10 s. Samples were centrifuged (14,000 rpm, 4 °C, 1 min) and 200 µL of supernatant was transferred to new tubes, 400 µL of ice-cold 99% ethanol was added to each tube, and they were kept on dry ice for 10 min. Samples were centrifuged (14,000 rpm, 4 °C, 2 min), pellet was washed with ethanol (70%), left to dry at room temperature, after which it was dissolved in 50 µL of DEPC treated water. Nanodrop (ND-1000, Witec AG, Sursee, Switzerland) was used for determination of concentration and purity of samples. RNA was stored at −80°C.
(§2) Amount of 10 µg RNA was incubated with 5 µL of DNAse buffer and 1 µL of DNAse at 37 °C for 30 min (DNA-free™ DNA Removal Kit, Ambion, Bleiswijk, Netherlands). After addition of DNAse inactivation reagent tubes were kept at room temperature with occasional vortexing for 5 min. Samples were centrifuged (14,000 rpm, 4°C, 2 min) and the concentration and quality of supernatant were analyzed on Nanodrop (ND-1000, Witec AG, Sursee, Switzerland).
(§3) Synthesis of cDNA was done with a Transcriptor High Fidelity cDNA synthesis kit (Roche). RNA (1 µg) was incubated with 60 µM random hexamer primers, in 11.4 µL of total sample volume, at 65 °C for 10 min. The mixture of Transcriptase reaction buffer 5×, Deoxynucleotide mix, DTT, Protector RNAse inhibitor, and Transcriptor High Fidelity Reverse Transcriptase was added to each tube according to manufacturer instructions. Synthesis of cDNA was completed by incubating the mixture at 50 °C for 30 min and 85 °C for 5 min (Peqstar thermocycler, Peqlab, Erlangen, Germany).
(§4) Wells of MicroAmp Fast 96-Well Reaction plate ((0.1 mL), Applied biosystems, Waltham, MA, USA) were incubated with 10 µL of mixture (cDNA, 2× MasterMix, primers, probe (Table 3), and water). Analysis was performed in StepOnePlus Real Time PCR system with relative standard curve method. Expression levels of CDR1 and ERG11 were normalized to expression of ACT1.

CDR1 = assay: Expression of CDR1 (qPCR); type: cell-based, Candida albicans; conditions: treatment with MIC
Protocol: as §1, §2, §3, §4

[2] = tested on: C. albicans morphological transition; conditions: cited from earlier work
[3] = tested on: HUVE (human umbilical vein endothelial) cells; conditions: read-out: LC50; cited from earlier work

| SMILES | antibiofilm activity ([1]; MIC and subMICs) | inhibition of biofilm formation ([1]; compound applied at MIC) | inhibition of biofilm formation ([1]; compound applied at MIC/2) | impact on ERG11 expression (words) (ERG11) | ERG11 expression level, Log2FC (ERG11; 30 min, normalized to ACT1) | impact on ERG11 expression (words) (ERG11; listed as isoquercitrin) | impact on CDR1 expression (CDR1) | concentration leading to reduction of morphological transition ([2]; ref 18) | concentration leading to reduction of morphological transition ([2]; ref 28) | CC50 [3] |
| --- | --- | --- | --- | --- | --- | --- | --- | --- | --- | --- |
| O=c1c(O[C@@H]2O[C@H](CO)[C@@H](O)[C@H](O)[C@H]2O)c(-c2ccc(O)c(O)c2)oc2cc(O)cc(O)c12 [Isoquercitrin, isoquercitrin] | excellent activity; also recorded: notably lowered | 76% | > 60% | increased expression levels | > 1 Log2FC | upregulated; also recorded: increased ERG11 expression | – | – | – | – |
| O=c1c(O)c(-c2ccc(O)c(O)c2)oc2cc(O)cc(O)c12 [Quercetin, quercetin] | – | – | – | – | – | – | did not exhibit any significant inhibitory potential | 64 µg/mL | up to 200 µg/mL | 61 µM |
